For experiment [1], the target named is T1, ryanodine receptor (RyR) / Ca2+-release channel (Oryctolagus cuniculus, UniProt P11716).
T1 construct: from tissue; host or cells: rabbit fast twitch skeletal muscle SR membranes
Briefly: [3H]ryanodine binding to SR membranes. The following applies: no UV; mean ± SEM of 3 to 5 experiments. More on the design: species or system rabbit. As for the experimental part:
(§1) Sarcoplasmic reticulum (SR) membranes were prepared from rabbit fast twitch skeletal muscle as described by Saito [Saito et al.: J. Cell Biol. 99 (1984) 875-85]. Mitochondria were isolated from rat liver as described by us previously [Gincel D. et al.: Biochem J. 358 (2001) 147-55]. VDAC was purified by a method developed in our laboratory, using columns of hydroxyapatite and reactive red agarose [Gincel D. et al.: J. Bioenerget. Biomembr. 32 (2000) 571-83].
For the determination of [^3H]ryanodine binding, SR membranes were incubated for 20-60 min at 37° C. in a standard binding solution containing 1M NaCl, 20 mM MOPS (pH 7.4), 50 μM free Ca^2+ and 20 nM [^3H]ryanodine. Unbound ryanodine was separated from protein-bound ryanodine by vacuum filtration of the sample through nitrocellulose filters (0.45 μm), followed by two washes with 4 ml ice-cold buffer containing 0.2 M NaCl, 10 mM MOPS (pH 7.4) and 50 μM CaCl2. The retained radioactivity in the dried filters was determined by liquid scintillation counting. Specific binding of [^3H]ryanodine was defined as the difference between the binding in the presence of 20 nM [^3H]ryanodine and in the presence of 20 μM unlabeled ryanodine.
(§2) The hexavalent RuR and the trivalent Ru360 have been employed in various studies as inhibitors of Ca^2+-dependent reactions. As shown here, even with no photoactivation, AzRu, in contrast to RuR and Ru360, was effective in inhibiting the SR Ca^2+-pump (Table 3). […] This may open the way to inhibit other Ca^2+-dependent activities that are not sensitive to RuR, such as the plasma membrane Ca^2+-ATPase. […] RuR was employed to improve mitochondrial production in ischemic reperfused pig myocardium, was employed in the nervous system to follow neuronal death progress and can act as an anti-oxidant in certain conditions. Considering the potent activity of AzRu in RuR-insensitive reactions (see Table 3), its applications in various biological studies should be explored. Ca^2+ accumulation in SR and mitochondria was assayed as described above in the absence and presence of different concentrations of RuR (0.05-100 μM), Ru360 (0.01-100 μM) or AzRu (0.1-100 μM). The concentration required for 50% inhibition (IC50) was derived from the plot of Ca^2+ accumulation activity or ryanodine binding as a function of the reagent concentration. The results are the mean±SEM of 3 to 5 experiments (Table 3).

Experiment [2] relates to mitochondrial uniporter (Ca2+ uptake in mitochondria). Description: Ca2+ uptake/accumulation in isolated mitochondria. It counts as biochemical, rat. The following applies: no UV; mean ± SEM of 3 to 5 experiments. As for the experimental part: as §1
Ca^2+-accumulation in freshly prepared mitochondria (0.5 mg/ml) was assayed for 1 to 20 minutes at 30° C. in the presence of 225 mM mannitol, 75 mM sucrose, 120 μM CaCl2 (containing 3×10^4 cpm/nmol ^45Ca^2+), 5 mM HEPES/KOH pH 7.0, and 5 mM succinate with 0.1 mM Pi, or 4 mM MgCl2 with 3 mM ATP. The Ca^2+-uptake was terminated by rapid Millipore filtration, followed by a wash with 5 ml of 0.15 M KCl. The Ca^2+-accumulation in SR was determined as described previously [Shoshan-Barmatz V. & Shaineberg A.: Biochim. Biophys. Acta 1065 (1991) 82-8]. Electron transport from succinate to cytochrome c was described in above cited article [Gincel D. et al.: J. Bioenerget. Biomembr. 32 (2000) 571-83].
The effect of AzRu on mitochondrial process of electron transport from the donor succinate to the acceptor cytochrome c was characterized as described above. Although said electron transfer involves several dozens electron transfer carriers, this reaction was not affected by azido-ruthenium of this invention.
as §2

Experiment [3] concerns U-937 human monocytic cell line. Description: STS-induced apoptotic cell death of U-937 cells (acridine orange/ethidium bromide staining). It counts as cell-based. The following applies: STS 1.25 μM, no AzRu. Here is the method: The U-937 human monocytic cell line was grown under an atmosphere of 95% air and 5% CO2 in RPMI 1640 supplemented with 10% fetal calf serum (FCS), 1 mM L-glutamine, 100 U/ml penicillin, and 100 μg/ml streptomycin. Cells were plated at a density of 5.4×10^4 cells/cm^2 in 24-well plates and then incubated with or without AzRu for 18 hr before exposure to 1.25 μM staurosporine (STS) to induce apoptosis. Cell viability was analyzed 5 and 7 hrs after STS addition by staining with 100 μg/ml acridine orange (AcOr) and 100 μg/ml ethidium bromide (EtBr) in PBS. The cells were then visualized by fluorescence microscopy (Olympus IX51) and images were recorded on an Olympus DP70 camera, using an SWB filter.
AzRu had no effect on the viability of the cells that were not exposed to STS. In FIG. 13 A, U-937 cells were incubated without (a, c) or with AzRu (10 μM) (b,d) for 18 hrs and thereafter were exposed to STS (1.25 μM) (c and d). After five hours the cells were stained with acridine orange and ethidium bromide. Arrows indicate cells in early apoptotic state, represented as degraded nucleus, but with intact cell membrane (stained by acridine orange). Arrowheads indicate a late apoptotic state, as shown by the presence of a degraded nucleus (stained by both acridine orange and ethidium bromide). Scale bar, 20 μm. In FIG. 13 B, quantitative analysis of apoptotic cell death in control cells and cells exposed to AzRu was assessed 5 and 7 hr after their exposure to STS (1.25 by ANOVA and t-test. P<0.001 was considered statistically significant (***). Data are the means±SEM, n=3. In each independent experiment, approximately 200 cells were counted for each treatment.

T1 sequence (P11716 whole entry): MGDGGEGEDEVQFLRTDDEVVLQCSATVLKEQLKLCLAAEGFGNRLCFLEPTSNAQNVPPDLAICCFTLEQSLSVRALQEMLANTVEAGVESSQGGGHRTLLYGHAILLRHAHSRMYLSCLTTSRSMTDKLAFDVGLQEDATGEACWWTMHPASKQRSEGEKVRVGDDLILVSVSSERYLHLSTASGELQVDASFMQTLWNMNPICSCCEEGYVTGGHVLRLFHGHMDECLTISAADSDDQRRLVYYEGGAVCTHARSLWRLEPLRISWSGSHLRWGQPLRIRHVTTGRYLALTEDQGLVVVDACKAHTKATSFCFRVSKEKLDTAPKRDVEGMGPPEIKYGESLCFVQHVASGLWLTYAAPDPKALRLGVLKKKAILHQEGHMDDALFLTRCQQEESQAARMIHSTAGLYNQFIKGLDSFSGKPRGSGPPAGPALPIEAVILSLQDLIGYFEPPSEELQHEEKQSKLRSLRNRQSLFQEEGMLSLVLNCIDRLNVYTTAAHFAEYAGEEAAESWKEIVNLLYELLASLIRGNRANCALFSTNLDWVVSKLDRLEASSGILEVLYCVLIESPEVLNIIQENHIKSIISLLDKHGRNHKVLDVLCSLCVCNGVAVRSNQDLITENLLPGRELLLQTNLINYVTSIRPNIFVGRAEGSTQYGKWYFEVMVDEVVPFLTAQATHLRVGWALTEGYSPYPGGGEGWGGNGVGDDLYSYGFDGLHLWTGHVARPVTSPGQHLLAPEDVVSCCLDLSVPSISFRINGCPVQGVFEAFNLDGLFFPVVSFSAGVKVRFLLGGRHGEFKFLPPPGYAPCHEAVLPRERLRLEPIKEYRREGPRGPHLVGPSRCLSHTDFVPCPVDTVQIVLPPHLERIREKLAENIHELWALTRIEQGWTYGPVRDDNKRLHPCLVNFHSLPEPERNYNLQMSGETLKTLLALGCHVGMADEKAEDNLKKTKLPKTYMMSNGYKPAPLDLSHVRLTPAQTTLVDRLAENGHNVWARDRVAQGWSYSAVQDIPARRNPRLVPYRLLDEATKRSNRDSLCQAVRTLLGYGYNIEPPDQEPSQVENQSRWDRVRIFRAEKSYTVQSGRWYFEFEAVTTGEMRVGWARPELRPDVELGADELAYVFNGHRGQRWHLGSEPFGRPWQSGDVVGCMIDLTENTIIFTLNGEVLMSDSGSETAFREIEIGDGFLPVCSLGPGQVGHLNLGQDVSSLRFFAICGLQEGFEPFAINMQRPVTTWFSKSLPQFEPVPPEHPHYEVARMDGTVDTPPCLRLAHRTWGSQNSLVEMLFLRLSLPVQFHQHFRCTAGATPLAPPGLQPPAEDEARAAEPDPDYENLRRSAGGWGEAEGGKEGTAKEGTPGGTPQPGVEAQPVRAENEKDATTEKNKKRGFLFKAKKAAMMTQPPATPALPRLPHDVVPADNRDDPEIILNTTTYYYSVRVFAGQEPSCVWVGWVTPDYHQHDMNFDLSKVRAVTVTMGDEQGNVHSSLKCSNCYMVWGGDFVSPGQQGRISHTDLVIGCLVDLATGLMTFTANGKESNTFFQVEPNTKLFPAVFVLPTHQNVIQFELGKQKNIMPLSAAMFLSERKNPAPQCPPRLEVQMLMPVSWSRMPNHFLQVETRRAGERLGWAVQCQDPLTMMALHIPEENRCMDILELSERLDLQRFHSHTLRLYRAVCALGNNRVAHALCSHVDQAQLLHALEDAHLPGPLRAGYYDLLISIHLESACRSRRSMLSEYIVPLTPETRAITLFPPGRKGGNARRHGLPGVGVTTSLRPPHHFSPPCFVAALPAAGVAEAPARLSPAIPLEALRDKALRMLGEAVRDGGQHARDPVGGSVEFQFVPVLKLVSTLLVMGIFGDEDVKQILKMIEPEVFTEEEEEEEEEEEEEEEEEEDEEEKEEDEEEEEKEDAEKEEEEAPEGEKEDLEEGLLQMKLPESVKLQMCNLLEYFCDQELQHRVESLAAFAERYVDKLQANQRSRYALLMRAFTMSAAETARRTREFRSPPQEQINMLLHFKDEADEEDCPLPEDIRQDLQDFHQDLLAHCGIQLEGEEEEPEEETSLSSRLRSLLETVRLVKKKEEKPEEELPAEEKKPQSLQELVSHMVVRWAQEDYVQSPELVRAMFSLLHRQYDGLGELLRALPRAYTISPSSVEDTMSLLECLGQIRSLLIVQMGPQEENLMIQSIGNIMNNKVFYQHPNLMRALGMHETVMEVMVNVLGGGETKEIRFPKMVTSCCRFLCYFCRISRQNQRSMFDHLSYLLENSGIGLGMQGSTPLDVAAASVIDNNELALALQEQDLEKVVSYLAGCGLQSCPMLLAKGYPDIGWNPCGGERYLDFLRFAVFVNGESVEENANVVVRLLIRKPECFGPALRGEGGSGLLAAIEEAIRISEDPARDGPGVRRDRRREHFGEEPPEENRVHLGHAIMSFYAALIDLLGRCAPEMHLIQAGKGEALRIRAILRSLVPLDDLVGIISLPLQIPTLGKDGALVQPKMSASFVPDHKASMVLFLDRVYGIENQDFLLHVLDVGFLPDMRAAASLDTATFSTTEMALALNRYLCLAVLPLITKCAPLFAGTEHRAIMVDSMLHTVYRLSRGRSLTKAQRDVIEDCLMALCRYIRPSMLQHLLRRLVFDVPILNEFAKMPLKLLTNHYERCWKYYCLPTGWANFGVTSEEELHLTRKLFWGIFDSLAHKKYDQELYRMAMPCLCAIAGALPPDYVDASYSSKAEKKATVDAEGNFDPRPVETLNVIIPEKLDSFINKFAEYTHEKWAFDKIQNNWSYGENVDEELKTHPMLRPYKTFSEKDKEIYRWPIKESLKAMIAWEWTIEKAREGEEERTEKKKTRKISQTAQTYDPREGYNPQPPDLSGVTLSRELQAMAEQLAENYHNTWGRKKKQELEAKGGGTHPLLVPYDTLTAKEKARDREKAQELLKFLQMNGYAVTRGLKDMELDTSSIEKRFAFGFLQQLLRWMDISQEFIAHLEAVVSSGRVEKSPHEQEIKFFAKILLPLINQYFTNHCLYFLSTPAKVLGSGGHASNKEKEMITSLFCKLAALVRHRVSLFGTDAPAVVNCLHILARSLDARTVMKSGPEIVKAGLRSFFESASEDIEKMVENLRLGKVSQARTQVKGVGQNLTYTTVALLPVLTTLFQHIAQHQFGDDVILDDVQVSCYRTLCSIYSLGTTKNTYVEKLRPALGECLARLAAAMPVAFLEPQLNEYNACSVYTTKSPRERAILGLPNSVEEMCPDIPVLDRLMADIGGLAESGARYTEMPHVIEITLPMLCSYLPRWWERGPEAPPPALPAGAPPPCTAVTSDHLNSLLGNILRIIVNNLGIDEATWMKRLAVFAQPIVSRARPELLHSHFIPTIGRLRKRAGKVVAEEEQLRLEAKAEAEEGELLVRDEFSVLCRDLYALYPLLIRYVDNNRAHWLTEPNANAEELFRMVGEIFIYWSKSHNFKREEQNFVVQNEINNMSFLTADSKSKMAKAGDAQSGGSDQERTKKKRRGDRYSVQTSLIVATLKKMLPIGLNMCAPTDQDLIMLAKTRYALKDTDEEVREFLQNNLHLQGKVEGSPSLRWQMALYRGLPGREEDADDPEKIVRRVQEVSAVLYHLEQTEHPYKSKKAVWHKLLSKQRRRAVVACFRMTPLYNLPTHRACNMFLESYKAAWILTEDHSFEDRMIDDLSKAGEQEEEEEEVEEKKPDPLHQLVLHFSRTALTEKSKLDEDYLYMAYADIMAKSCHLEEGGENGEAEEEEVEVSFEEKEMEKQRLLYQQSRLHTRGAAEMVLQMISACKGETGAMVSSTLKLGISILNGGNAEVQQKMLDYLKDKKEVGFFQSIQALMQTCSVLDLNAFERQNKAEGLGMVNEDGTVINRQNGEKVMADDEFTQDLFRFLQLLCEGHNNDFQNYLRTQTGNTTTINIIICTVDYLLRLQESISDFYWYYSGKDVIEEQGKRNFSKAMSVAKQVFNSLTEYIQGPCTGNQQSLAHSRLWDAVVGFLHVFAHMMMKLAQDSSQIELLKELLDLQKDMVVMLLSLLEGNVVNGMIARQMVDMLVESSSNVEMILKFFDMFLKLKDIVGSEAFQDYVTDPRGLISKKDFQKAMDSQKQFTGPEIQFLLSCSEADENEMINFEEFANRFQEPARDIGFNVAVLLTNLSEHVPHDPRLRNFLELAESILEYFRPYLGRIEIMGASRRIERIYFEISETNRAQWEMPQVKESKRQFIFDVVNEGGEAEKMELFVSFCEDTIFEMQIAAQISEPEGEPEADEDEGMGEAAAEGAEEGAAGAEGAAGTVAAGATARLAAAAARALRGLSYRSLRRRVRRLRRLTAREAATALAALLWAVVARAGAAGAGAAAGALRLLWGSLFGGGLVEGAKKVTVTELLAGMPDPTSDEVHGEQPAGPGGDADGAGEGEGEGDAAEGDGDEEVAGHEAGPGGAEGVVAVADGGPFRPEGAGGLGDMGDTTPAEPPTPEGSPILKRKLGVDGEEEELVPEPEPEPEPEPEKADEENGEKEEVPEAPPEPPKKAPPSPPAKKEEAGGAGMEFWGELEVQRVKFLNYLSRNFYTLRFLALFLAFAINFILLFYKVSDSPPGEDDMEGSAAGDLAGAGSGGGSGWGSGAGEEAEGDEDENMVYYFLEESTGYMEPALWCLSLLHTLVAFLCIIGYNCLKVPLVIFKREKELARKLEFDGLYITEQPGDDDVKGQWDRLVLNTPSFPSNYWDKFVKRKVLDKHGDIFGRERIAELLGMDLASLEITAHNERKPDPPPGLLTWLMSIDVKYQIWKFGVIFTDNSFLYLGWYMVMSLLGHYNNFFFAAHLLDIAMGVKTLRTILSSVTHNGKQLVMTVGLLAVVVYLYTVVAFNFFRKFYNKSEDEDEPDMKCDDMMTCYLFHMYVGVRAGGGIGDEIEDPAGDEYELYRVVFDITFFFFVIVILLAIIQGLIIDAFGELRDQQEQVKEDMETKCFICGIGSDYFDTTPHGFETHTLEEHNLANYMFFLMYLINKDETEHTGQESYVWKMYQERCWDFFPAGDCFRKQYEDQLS

As to `Cl.Cl.Cl.Cl.Cl.Cl.N.N.N.N.N.N.N.N.N.N.N.N.N.N.[O-2].[O-2].[Ru+3].[Ru+3].[Ru+4]` [RuR, ruthenium red, reference compound], the IC50 was determined as 7.2 ± 0.55 µM in experiment [1] and 0.16 ± 0.03 µM in experiment [2].
With `CN[C@@H]1C[C@H]2O[C@@](C)([C@@H]1OC)n1c3ccccc3c3c4c(c5c6ccccc6n2c5c31)C(=O)NC4` [STS, staurosporine, reference compound], the “Apoptotic cell death (% of the cells)” value in experiment [3] (5 hrs exposure) is “about 42%”; in experiment [3] (7 hrs exposure) it was around 76%.
Take Ru360 [reference compound]: the results for the IC50 in experiment [1] and in experiment [2] were 14.8 ± 2.8 µM and 0.067 ± 0.008 µM, respectively.

By IC50 is commonly meant the point on the concentration scale where inhibition reaches its midpoint. Read a low IC50 as inhibition by little substance.
